For one assay, the system named is S. aureus biofilm. In words: S. aureus biofilm inhibition, optical density, test/control. Format: cell-based, Staphylococcus aureus. The conditions noted are these: Staphylococcus aureus, growth of biofilm test/control by optical density; for activity at 5 µM: read-out: S. aureus Biofilm Inhibition 5 μM vs. (−) Control; for activity at 50 µM: read-out: S. aureus Biofilm Inhibition 50 μM vs. (−) Control.

For another assay, the system named is S. aureus. In words: S. aureus growth inhibition, optical density, test/control. It is filed as cell-based, Staphylococcus aureus. The note with it: Staphylococcus aureus, growth of bacteria test/control by optical density.

`C=CCn1c(SCc2ccccn2)nc2c(c1=O)C(C)(C)Cc1ccccc1-2` [CCG-203039]: the activity at 100 µM in the assay with S. aureus biofilm was 71%; with S. aureus, 95.9%.

Regarding `C=CCn1c(SCC)nc2c(c1=O)C(C)(C)Cc1cc(OCCN3C(=O)c4ccccc4C3=O)ccc1-2` [CCG-206176, 2-(2-((3-allyl-2-(ethylthio)-5,5-dimethyl-4-oxo-3,4,5,6-tetrahydrobenzo[h]quinazolin-8-yl)oxy)ethyl)isoindoline-1,3-dione], the figures for the activity at 100 µM with S. aureus biofilm and in the assay with S. aureus were 79.5% and 100%, respectively.

For the compound `C=CCn1c(SCCOC)nc2c(c1=O)C1(CCN(C(=O)c3ccc(Cl)cc3)CC1)Cc1ccccc1-2` [CCG-206235, 3-Allyl-1′-(4-chlorobenzoyl)-2-((2-methoxyethyl)thio)-3H-spiro[benzo[h]quinazoline-5,4′-piperidin]-4(6H)-one], the activity at 100 µM was found to be 77.6% in the assay on S. aureus biofilm and 106% in the assay with S. aureus.

Regarding `COCCSc1nc2c(c(=O)n1CCOc1ccc(F)cc1)C(C)(C)Cc1ccccc1-2` [CCG-204027, 3-(2-(4-Fluorophenoxy)ethyl)-2-((2-methoxyethyl)thio)-5,5-dimethyl-5,6-dihydrobenzo-[h]quinazolin-4(3H)-one], the activity at 100 µM with S. aureus biofilm was determined as 74.8%; in the assay with S. aureus, 108%.

`COCCSc1nc2c(c(=O)n1CC1OCCO1)C(C)(C)Cc1ccccc1-2` [CCG-204029, 3-((1,3-Dioxolan-2-yl)methyl)-2-((2-methoxyethyl)thio)-5,5-dimethyl-5,6-dihydrobenzo[h]-quinazolin-4(3H)-one]: the activity at 100 µM worked out at 63.6% in the assay with S. aureus biofilm and 94.3% in the assay with S. aureus.

Turning to `C=CCn1c(SCC)nc2c(c1=O)C(C)(C)Cc1cc(OC(C)C)ccc1-2` [CCG-205480], the activity at 10 µM in the assay on S. aureus biofilm was found to be 52.3%. Besides, in the assay with S. aureus, the activity at 100 µM came to 115%.

Turning to `C=CCn1c(SCCOC)nc2c(c1=O)C(C)(C)Cc1cc(C(=O)OC)ccc1-2` [CCG-205435], the activity at 10 µM with S. aureus biofilm was 29.3%. The activity at 100 µM in the assay on S. aureus is 126%.

Take `C=CCn1c(SCC)nc2c(c1=O)C(C)(C)Cc1cc(OCC(C)C)ccc1-2` [CCG-205426, 3-allyl-2-(ethylthio)-8-isobutoxy-5,5-dimethyl-5,6-dihydrobenzo[h]quinazolin-4(3H)-one]: the activity at 100 µM in the assay on S. aureus biofilm is 77.8%; in the assay on S. aureus it was 114%.

Take `C=CCOc1nc(SCCOC)nc(-c2ccccc2)c1C` [CCG-205382, 4-(Allyloxy)-2-((2-methoxyethyl)thio)-5-methyl-6-phenylpyrimidine]: the activity at 100 µM in the assay with S. aureus biofilm is 55.2%; in the assay with S. aureus, 93.4%.

As for `C=CCn1c(OCC)nc2c(c1=O)C1(CCCCC1)Cc1ccccc1-2` [CCG-102622], the activity at 100 µM with S. aureus biofilm was 68.6%; in the assay with S. aureus, 77.7%.

Regarding `COCCSc1nc2c(c(=O)n1Cc1ccc(OC)cc1)C(C)(C)Cc1ccccc1-2` [CCG-204036, 3-(4-Methoxybenzyl)-2-((2-methoxyethyl)thio)-5,5-dimethyl-5,6-dihydrobenzo[h]quin-azolin-4(3H)-one], the activity at 100 µM was found to be 76.5% in the assay with S. aureus biofilm and 112% in the assay with S. aureus.

Take `CCn1c(SCCOC)nc2c(c1=O)C(C)(C)Cc1ccccc1-2` [CCG-203598]: the figures for the activity at 100 µM in the assay on S. aureus biofilm and in the assay on S. aureus were 61% and 85.5%, respectively.

As for `CCSc1nc2c(c(=O)n1CCOC)C(C)(C)Cc1ccccc1-2` [CCG-203802, 2-(ethylthio)-3-(2-methoxyethyl)-5,5-dimethyl-5,6-dihydrobenzo[h]quinazolin-4(3H)-one], the activity at 100 µM stood at 55.7% with S. aureus biofilm and 67.7% in the assay with S. aureus.

Turning to `C#CCSc1nc2c(c(=O)n1CC=C)C(C)(C)Cc1cc(C(=O)c3ccccc3)ccc1-2` [CCG-204080, 3-allyl-8-benzoyl-5,5-dimethyl-2-(prop-2-yn-1-ylthio)-5,6-dihydrobenzo[h]quinazolin-4(3H)-one], the activity at 100 µM with S. aureus biofilm was found to be 73.4%; in the assay on S. aureus it was 110%.

For the compound `COCCSc1nc(OCC2CC2)c2c(n1)-c1ccccc1CC2(C)C` [CCG-205445, 4-(Cyclopropylmethoxy)-2-((2-methoxyethyl)thio)-5,5-dimethyl-5,6-dihydrobenzo[h]quin-azoline], the activity at 100 µM in the assay on S. aureus biofilm came to 71.1%; in the assay on S. aureus it was 107%.

As to `C=CCn1c(SCCOC)nc2c(c1=O)C1(CCN(C(=O)c3ccccc3)CC1)Cc1ccccc1-2` [CCG-206231, 3-Allyl-1′-benzoyl-2-((2-methoxyethyl)thio)-3H-spiro[benzo[h]quinazoline-5,4′-piperidin]-4(6H)-one], in the assay on S. aureus biofilm, the activity at 10 µM was determined as 52.5%. The activity at 100 µM was 53% in the assay with S. aureus biofilm and 111% with S. aureus.

`COCCSc1nc(OCCOc2ccc(F)cc2)c2c(n1)-c1ccccc1CC2(C)C` [CCG-204028, 4-(2-(4-Fluorophenoxy)ethoxy)-2-((2-methoxyethyl)thio)-5,5-dimethyl-5,6-dihydrobenzo[h]-quinazoline]: the figures for the activity at 100 µM with S. aureus biofilm and with S. aureus were 70% and 113%, respectively.

On to `C=CCn1c(SC)nc2c(c1=O)C1(CCCCC1)Cc1ccccc1-2` [CCG-102620], for which the figures for the activity at 100 µM in the assay with S. aureus biofilm and in the assay on S. aureus were 76.5% and 95.3%, respectively.

`COCCSc1nc(OCc2ccc(OC)cc2)c2c(n1)-c1ccccc1CC2(C)C` [CCG-204037, 4-((4-Methoxybenzyl)oxy)-2-((2-methoxyethyl)thio)-5,5-dimethyl-5,6-dihydrobenzo[h]-quinazoline]: the values for the activity at 100 µM in the assay on S. aureus biofilm and in the assay on S. aureus were 65.7% and 110%, respectively.

On to `COCCSc1nc2c(c(=O)n1CC1CC1)C(C)(C)Cc1ccccc1-2` [CCG-205444, 3-(Cyclopropylmethyl)-2-((2-methoxyethyl)thio)-5,5-dimethyl-5,6-dihydrobenzo[h]quinazolin-4(3H)-one], for which the activity at 100 µM in the assay with S. aureus biofilm worked out at 66.2%; with S. aureus, 104%.

In the case of `C=CCn1c(SCCOC)nc2c(c1=O)C1(CCN(C(C)=O)CC1)Cc1ccccc1-2` [CCG-206230, 1′-Acetyl-3-allyl-2-((2-methoxyethyl)thio)-3H-spiro[benzo[h]quinazoline-5,4′-piperidin]-4(6H)-one], the activity at 10 µM with S. aureus biofilm was 85.5%. For the same compound, in the assay on S. aureus, the activity at 100 µM turned out to be 97%.

As to `C=CCn1c(SCCOC)nc2c(c1=O)C(C)(C)Cc1cnccc1-2` [CCG-204041, 3-allyl-2-((2-methoxyethyl)thio)-5,5-dimethyl-5,6-dihydropyrido[3,4-h]quinazolin-4(3H)-one], the activity at 100 µM with S. aureus biofilm turned out to be 75.7%; with S. aureus, 90.2%.

Turning to `COCCOc1nc(SCCOC)nc(-c2ccccc2)c1C` [CCG-205361, 4-(2-Methoxyethoxy)-2-((2-methoxyethyl)thio)-5-methyl-6-phenylpyrimidine], the activity at 100 µM in the assay with S. aureus biofilm came out at 67.7%; in the assay on S. aureus it was 89%.

For the compound `COCCSc1nc2c(c(=O)n1CCCC#N)C(C)(C)Cc1ccccc1-2` [CCG-204031, 4-(2-((2-Methoxyethyl)thio)-5,5-dimethyl-4-oxo-5,6-dihydrobenzo[h]quinazolin-3(4H)-yl)butanenitrile], the activity at 100 µM in the assay with S. aureus biofilm was determined as 59.2%; in the assay with S. aureus, 98.5%.

As for `C=CCn1c(SCC(F)(F)F)nc2c(c1=O)C(C)(C)Cc1ccc(OC)cc1-2` [CCG-206352], the activity at 10 µM in the assay on S. aureus biofilm amounted to 60.4%. The activity at 100 µM was 47% in the assay on S. aureus biofilm and 101% in the assay with S. aureus.

On to `COCCSc1nc2c(c(=O)n1Cc1ccc(-c3noc(C)n3)cc1)C(C)(C)Cc1ccccc1-2` [CCG-205387, 2-((2-Methoxyethyl)thio)-5,5-dimethyl-3-(4-(5-methyl-1,2,4-oxadiazol-3-yl)benzyl)-5,6-dihydrobenzo[h]quinazolin-4(3H)-one], for which the activity at 100 µM in the assay with S. aureus biofilm came to 72.3%; with S. aureus, 115%.

`C=CCn1c(SCCN(C)C)nc2c(c1=O)C1(CCCCC1)Cc1ccccc1-2` [CCG-102495]: the activity at 100 µM is 78.9% in the assay with S. aureus biofilm and 93% in the assay with S. aureus.

As to `COCCSc1nc2c(c(=O)n1CCOc1ccc(OC)cc1)C(C)(C)Cc1ccccc1-2` [CCG-204060], the activity at 100 µM in the assay with S. aureus biofilm is 79%; in the assay with S. aureus it was 91.2%.

With `COCCSc1nc(OCC(=O)c2ccc(F)c(F)c2)c2c(n1)-c1ccccc1CC2(C)C` [CCG-204040, 1-(3,4-Difluorophenyl)-2-((2-((2-methoxyethyl)thio)-5,5-dimethyl-5,6-dihydrobenzo[h]-quinazolin-4-yl)oxy)ethanone], the activity at 100 µM in the assay with S. aureus biofilm stood at 65.9%; in the assay with S. aureus, 119%.

As for `C=CCn1c(SCCOC)nc2c(c1=O)C1(CCCCC1)Cc1ccccc1-2` [CCG-102493], the activity at 100 µM is 66% with S. aureus biofilm and 72.1% with S. aureus.

For `CCSc1nc(OCC(F)(F)F)c2c(n1)-c1cc(OC)ccc1CC2(C)C` [CCG-206356], the activity at 100 µM amounted to 59.1% in the assay with S. aureus biofilm and 110% with S. aureus.

Take `C=CCn1c(SCCOC)nc2c(c1=O)C1(CCOCC1)Cc1ccccc1-2` [CCG-205453, 3-Allyl-2-((2-methoxyethyl)thio)-2′,3′,5′,6′-tetrahydro-3H-spiro[benzo[h]quinazoline-5,4′-pyran]-4(6H)-one]: the activity at 100 µM came to 79.6% in the assay on S. aureus biofilm and 102% in the assay with S. aureus.

For the compound `C=CCn1c(SCCOC)nc2c(c1=O)C1(CCN(C(=O)NCC(=O)OCC)CC1)Cc1cc(OC)ccc1-2` [CCG-211972, ethyl (3-allyl-8-methoxy-2-((2-methoxyethyl)thio)-4-oxo-4,6-dihydro-3H-spiro[benzo[h]quinazoline-5,4′-piperidine]-1′-carbonyl)glycinate], in the assay with S. aureus biofilm, the activity at 5 µM turned out to be 125% and the activity at 50 µM was determined as 68%.

For `C=CCn1c(SCC)nc2c(c1=O)C(C)(C)Cc1ccc(OC)cc1-2` [CCG-203625], the activity at 10 µM with S. aureus biofilm is 51.3%.

Take `COc1ccc2c(c1)CC1(CCN(C(=O)OC(C)(C)C)CC1)c1c(OCC#N)nc(SCC#N)nc1-2` [CCG-211812, tert-butyl 4-(cyanomethoxy)-2-((cyanomethyl)thio)-8-methoxy-6H-spiro[benzo[h]quinazoline-5,4′-piperidine]-1′-carboxylate]: in the assay on S. aureus biofilm, the activity at 5 µM worked out at 75.2% and the activity at 50 µM worked out at 75%.
